This is an account of results in patent US6355799B1, “Substituted benzene compounds, process for their preparation, and herbicidal and defoliant compositions containing them” (ISK Americas Incorporated, priority 1997, dated 2002).

SMILES strings stand for the structures.

Format in all cases: in vivo
Test [1] concerns velvetleaf (Abutilon theophrasti, ABUTH). Briefly: Pre-emerge test, greenhouse herbicide activity screening. The settings on record: pre-emerge, rated 14 days after application, 0 = no damage, 100 = complete death. The procedure, abridged:
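Rating: 0–100 visual injury, 14 DAA. Application: acetone, 187 l/ha, 15–1000 g ai/ha, flat-fan track sprayer with nozzle 40–45 cm above soil or canopy. Post-emerge runs used 0.25% v/v surfactant on 2–3 leaf plants.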

Test [2] deals with redroot pigweed (Amaranthus retroflexus, AMARE). The description is as above. Particulars: pre-emerge, rated 14 days after application, 0 = no damage, 100 = complete death. The procedure, abridged: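 Compounds in acetone were track-sprayed at 187 l/ha, 15–1000 g ai/ha, onto sandy loam pots. Pre-emerge seeds were sown one day before spraying, with surface watering afterwards. Post-emerge plants were at the 2–3 leaf stage and sprayed with 0.25% v/v non-ionic surfactant. Injury was rated 0–100 at 14 days.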

Test [3] deals with green foxtail (Setaria viridis, SETVI). As to the kind of experiment: Post-emerge test, greenhouse herbicide activity screening. The settings on record: Setaria viridis, post-emergence, 336 h, phytotoxicity rating 0-100 (0 no damage, 100 complete death), 14 days after application, read-out: Post-emerge Herbicidal Activity SETVI; for pest or weed control at 63 g/ha: 63 g ai/ha; for pest or weed control at 250 g/ha: 250 g ai/ha. The procedure, abridged: (§1)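 Herbicidal damage is scored 0 (none) to 100 (complete plant death) two weeks after a simulated field spray. Rates span 15–1000 g ai/ha, delivered in acetone at 187 l/ha. For post-emergence treatments, plants have 2–3 leaves and the spray carries 0.25% v/v non-ionic surfactant.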

In test [4] the test system is barnyardgrass (Echinochloa crus-galli, ECHCG). Described as above. Particulars: Echinochloa crus-galli, post-emergence, 336 h, phytotoxicity rating 0-100 (0 no damage, 100 complete death), 14 days after application, read-out: Post-emerge Herbicidal Activity ECHCG; for pest or weed control at 63 g/ha: 63 g ai/ha; for pest or weed control at 250 g/ha: 250 g ai/ha. The procedure, abridged: as §1

Test [5] relates to sicklepod (Cassia obtusifolia, CASOB). Described as above. Particulars: Senna obtusifolia, post-emergence, 336 h, phytotoxicity rating 0-100 (0 no damage, 100 complete death), 14 days after application, read-out: Post-emerge Herbicidal Activity CASOB; for pest or weed control at 63 g/ha: 63 g ai/ha; for pest or weed control at 250 g/ha: 250 g ai/ha. The procedure, abridged: as §1

Test [6] relates to johnsongrass (Sorghum halepense, SORHA). Described as above. Particulars: Sorghum halepense, post-emergence, 336 h, phytotoxicity rating 0-100 (0 no damage, 100 complete death), 14 days after application, read-out: Post-emerge Herbicidal Activity SORHA; for pest or weed control at 63 g/ha: 63 g ai/ha; for pest or weed control at 250 g/ha: 250 g ai/ha. The procedure, abridged: as §1

In test [7] the test system is large crabgrass (Digitaria sanguinalis, DIGSA). Described as above. Particulars: Digitaria sanguinalis, post-emergence, 336 h, phytotoxicity rating 0-100 (0 no damage, 100 complete death), 14 days after application, read-out: Post-emerge Herbicidal Activity DIGSA; for pest or weed control at 63 g/ha: 63 g ai/ha; for pest or weed control at 250 g/ha: 250 g ai/ha. The procedure, abridged: as §1

For test [8], the system named is lambsquarters (Chenopodium album, CHEAL). Described as above. Particulars: Chenopodium album, post-emergence, 336 h, phytotoxicity rating 0-100 (0 no damage, 100 complete death), 14 days after application, read-out: Post-emerge Herbicidal Activity CHEAL; for pest or weed control at 63 g/ha: 63 g ai/ha; for pest or weed control at 250 g/ha: 250 g ai/ha. The procedure, abridged:
as §1

In test [9] the test system is velvetleaf (Abutilon theophrasti, ABUTH). The test is described as above. The settings on record: Abutilon theophrasti, post-emergence, 336 h, phytotoxicity rating 0-100 (0 no damage, 100 complete death), 14 days after application, read-out: Post-emerge Herbicidal Activity ABUTH; for pest or weed control at 63 g/ha: 63 g ai/ha; for pest or weed control at 250 g/ha: 250 g ai/ha. The procedure, abridged: as §1

In test [10] the test system is ivyleaf morningglory (Ipomoea hederacea, IPOHE). The test is described as above. The settings on record: Ipomoea, post-emergence, 336 h, phytotoxicity rating 0-100 (0 no damage, 100 complete death), 14 days after application, read-out: Post-emerge Herbicidal Activity IPOHE; for pest or weed control at 63 g/ha: 63 g ai/ha; for pest or weed control at 250 g/ha: 250 g ai/ha. The procedure, abridged: as §1

Test [11] deals with redroot pigweed (Amaranthus retroflexus, AMARE). Described as above. The settings on record: Amaranthus retroflexus, post-emergence, 336 h, phytotoxicity rating 0-100 (0 no damage, 100 complete death), 14 days after application, read-out: Post-emerge Herbicidal Activity AMARE; for pest or weed control at 63 g/ha: 63 g ai/ha; for pest or weed control at 250 g/ha: 250 g ai/ha. The procedure, abridged: as §1

Turning to `Cn1c(C(F)(F)F)cc(=O)n(-c2c(F)cc(Cl)c(O)c2N)c1=O` [Compound 1-16, 3-(2-amino-4-chloro-6-fluoro-3-hydroxyphenyl)-1-methyl-6-trifluoromethyl-2,4(1H, 3H)-pyrimidinedione], the “Pre-emerge Herbicidal Activity ABUTH (phytotoxicity rating, scale 0-100)” value in [1] (63 g ai/ha) and in [1] (250 g ai/ha) was 0 in each case. In addition, the “Pre-emerge Herbicidal Activity AMARE (phytotoxicity rating, scale 0-100)” value in test [2] (63 g ai/ha) and in [2] (250 g ai/ha) was 0 throughout. Further, the pest or weed control at 63 g/ha is 0% in [3]; 0% in [4]; 0% in [5]; 0% in [6]; 0% in test [7]; 30% in [8]. Besides, the pest or weed control at 63 g/ha in test [9] was 30%; in [10], 20%; in test [11], 30%. The pest or weed control at 250 g/ha in [3] turned out to be 0%; in [4], 0%; in test [5], 0%; in test [6], 0%; in test [7], 0%; in [8], 60%. Also, the pest or weed control at 250 g/ha in [9] was 50%; in [10], 50%; in [11], 70%.
As for `COc1c(Cl)cc(F)c(-n2c(=O)cc(C(F)(F)F)n(C)c2=O)c1[N+](=O)[O-]` [Compound 1-5, 3-(4-chloro-6-fluoro-3-methoxy-2-nitrophenyl)-1-methyl-6-trifluoromethyl-2,4(1H, 3H)-pyrimidinedione], the “Pre-emerge Herbicidal Activity ABUTH (phytotoxicity rating, scale 0-100)” value is 30 in test [1] (63 g ai/ha) and 100 in [1] (250 g ai/ha). The “Pre-emerge Herbicidal Activity AMARE (phytotoxicity rating, scale 0-100)” value was determined as 20 in test [2] (63 g ai/ha) and 95 in test [2] (250 g ai/ha). Also, the pest or weed control at 63 g/ha in [3], in [4], in test [5], in test [6], in test [7] and in test [8] was 0% each time. Besides, the pest or weed control at 63 g/ha in [9] came out at 10%; in test [10] it was 0%; in test [11], 0%. The pest or weed control at 250 g/ha worked out at 0% in [3]; 0% in test [4]; 30% in test [5]; 0% in test [6]; 0% in [7]; 50% in test [8]. The pest or weed control at 250 g/ha in test [9] came to 60%; in test [10], 70%; in [11], 40%.
